US9060541B2, “Sterilizer for foods” (Kawakami Co., Ltd., priority 2009, dated 2015)

Assays:
[1] = test system: Escherichia coli O-157 (enterohemorrhagic Escherichia coli O157: H7 EDL 933); experiment: Cutting board sterilization test; assay type: cell-based; conditions: 0.7 ml sprayed on contaminated cutting board; swab sample 1 minute later; cultured 24 hours at 37° C.
[2] = test system: general viable bacteria; experiment: Hand sterilization test (Sterilization Test 2); conditions: 1.4 ml sprayed on washed and dried hand; swab sample 1 minute later; cultured 48 hours at 37° C.
[3] = test system: Campylobacter jejuni subsp. Jejuni JCM2013; experiment: Sterilization test on beef (yukhoe; raw beef); assay type: cell-based; conditions: sprayed and mixed into inoculated beef; 24 hours after storage at 10° C.
[4] = test system: Staphylococcus aureus (209P); experiment: Sterilization effect determination test (Fujimoto's modified method of the Kelsey-Sykes method); assay type: cell-based; set-up: key: D: There is no sterilization effect.; C: There is a sterilization effect in step (1) but no sterilization effect in step (2).; B: There is a sterilization effect up to step (2) but no sterilization effect in step (3).; A: There is a sterilization effect up to step (3); conditions: water remainder
[5] = test system: Escherichia coli (NIHJ); experiment: as above; assay type: cell-based; set-up: key: D: There is no sterilization effect.; C: There is a sterilization effect in step (1) but no sterilization effect in step (2).; B: There is a sterilization effect up to step (2) but no sterilization effect in step (3).; A: There is a sterilization effect up to step (3); conditions: water remainder
[6] = Table 2, compositions of calcinated calcium and ethanol, 20° C., steps (1)-(3)
[7] = Table 1, compositions of calcinated calcium and ethanol, 20° C., steps (1)-(3)
[8] = Table 4, compositions with sodium lactate blended
[9] = Table 3, compositions with sodium lactate blended

Row | Compound | Sterilization effect [4, 6] | Sterilization effect [5, 7] | Sterilization effect [4, 8] | Sterilization effect [5, 9] | further results
1 | CCO [70% ethanol, ethanol] | – | – | – | – | Cutting board microbe eradication results (general viable bacteria count) [1]: 2.8 × 10^4; Hand sterilization results (general viable bacteria count) [2]: 6.2 × 10^3; viable bacteria count [3]: 10^5 to 10^6
2 | CCO [Ethanol 5 wt %, ethanol] | D | D | – | – | –
3 | CCO [Ethanol 10 wt %, ethanol] | D | D | – | – | –
4 | CCO [Ethanol 20 wt %, ethanol] | D | D | – | – | –
5 | CCO [Ethanol 50 wt %, ethanol] | D | B | – | – | –
6 | CCO [Ethanol 75 wt %, ethanol] | B | B | – | – | –
7 | CCO [Ethanol 100 wt %, ethanol] | A | A | – | – | –
8 | CC(O)C(=O)[O-].[Na+] (stereo not shown) [Sodium lactate 1.5 wt %, sodium lactate] | – | – | D | D | –
9 | CC(O)C(=O)[O-].[Na+] (stereo not shown) [Sodium lactate 3 wt %, sodium lactate] | – | – | D | D | –
10 | CC(O)C(=O)[O-].[Na+] (stereo not shown) [Sodium lactate 4.5 wt %, sodium lactate] | – | – | D | D | –
11 | CC(O)C(=O)[O-].[Na+] (stereo not shown) [Sodium lactate 6 wt %, sodium lactate] | – | – | D | D | –
12 | CC(O)C(=O)[O-].[Na+] (stereo not shown) [Sodium lactate 9 wt %, sodium lactate] | – | – | D | no sterilization effect whatsoever and D | –
